Reference: US10738028B2, “Spiro three-membered ring, spiro five-membered ring peptide deformylase inhibitor and use thereof in antibacteria and anti-tumor” (priority 2016, dated 2020)
Like-named read-outs stand apart in the source and are kept apart here.

Experiments:
Type in all cases: cell-based
[1] = system: BEL-7402 liver cancer cell line; experiment: CCK-8 proliferation inhibition; conditions: concentration of 30 μM
Outline: (§1)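 Plating at 2000 cells/well, then incubation overnight at 37° C. Next, a range of compound concentrations for 72 hours (control 1‰ DMSO). Finally, medium decanted and CCK-8 diluted 1:10 added.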

[2] = system: A549 lung cancer cell line; experiment: CCK-8 proliferation inhibition; conditions: Homo sapiens, A549, 72 h, concentration of 30 μM
Outline: as §1

[3] = system: MGC-803 gastric cancer cell line; experiment: CCK-8 proliferation inhibition; conditions: Homo sapiens, MGC-803, 72 h, concentration of 30 μM
Outline: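 Using media specific to each line (1640 for MGC-803 and Jurkat, F12 for PC3, DMEM high glucose for MCF-7, each with 10% newborn bovine serum), cells at 2000/well were treated for 72 h with serially formulated compounds, then assessed with CCK-8 diluted 1:10.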

[4] = system: Moraxella catarrhalis (BCA); experiment: MIC, two-fold agar dilution (CLSI), clinical isolates
Outline: (§2)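 Test samples were assayed by the CLSI-recommended two-fold agar dilution method, and the minimum inhibitory concentration against each tested strain was determined.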

[5] = system: Enterococcus faecalis (EFA); experiment: as above
Outline: as §2

[6] = system: methicillin-sensitive Staphylococcus epidermidis (MSSE); experiment: as above
Outline: as §2

[7] = system: Enterococcus faecium (EFM); experiment: as above
Outline: as §2

[8] = system: methicillin-resistant Staphylococcus aureus (MRSA); experiment: as above
Outline: as §2

[9] = system: Escherichia coli (including ESBLs, non-ESBLs); experiment: as above
Outline: as §2

[10] = system: methicillin-resistant Staphylococcus epidermidis (MRSE); experiment: as above
Outline: as §2

[11] = system: methicillin-sensitive Staphylococcus aureus (MSSA); experiment: as above
Outline: as §2

[12] = system: Streptococcus pneoumoniae (SPN); experiment: as above
Outline: as §2

[13] = system: HCT-116 colorectal cancer cell line; experiment: CCK-8 proliferation inhibition; conditions: Homo sapiens, HCT-116, 72 h, concentration of 30 μM, 72 hours, CCK-8
Outline: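 Proliferation over 72 hours of compound treatment was measured with CCK-8 against a 1‰ DMSO control.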

O=C(C[C@@H](CC1CCCC1)C(=O)N1CC2(CC2)C[C@H]1C(=O)Nc1ncccc1F)NO [Example 67]
inhibition at 30 µM ([1]; Homo sapiens, Bel-7402, 72 h): > 50% | Inhibition of proliferation, Liver cancer BEL-7402 ([1]; 72 hours, 30 µM): 57% | inhibition at 30 µM [2]: 36% | inhibition at 30 µM [3]: 39% | Anti-bacterial activity (MIC) ([4]; strain BCA 14-1): 2 µg/mL | Anti-bacterial activity (MIC) ([4]; strain BCA 14-4): 2 µg/mL | Anti-bacterial activity (MIC) ([4]; strain BCA 14-5): 2 µg/mL | Anti-bacterial activity (MIC) ([4]; strain BCA 14-6): 2 µg/mL | Anti-bacterial activity (MIC) ([4]; strain BCA 14-7): 2 µg/mL | Anti-bacterial activity (MIC) ([4]; strain BCA 14-8): 2 µg/mL | Anti-bacterial activity (MIC) ([4]; strain BCA 14-10): 0.5 µg/mL | Anti-bacterial activity (MIC) ([5]; strain EFA 15-1): 32 µg/mL | Anti-bacterial activity (MIC) ([5]; strain EFA 15-2): 32 µg/mL | Anti-bacterial activity (MIC) ([5]; strain EFA 15-3): 32 µg/mL | Anti-bacterial activity (MIC) ([5]; strain EFA 15-4): 32 µg/mL | Anti-bacterial activity (MIC) ([5]; strain EFA 15-5): 32 µg/mL | Anti-bacterial activity (MIC) ([5]; strain EFA 15-6): 32 µg/mL | Anti-bacterial activity (MIC) ([5]; strain EFA 15-9): 8 µg/mL | Anti-bacterial activity (MIC), strain MSSE 15-3 ([6]; clinical isolate MSSE 15-3): 0.25 µg/mL | Anti-bacterial activity (MIC), strain MSSE 15-4 ([6]; clinical isolate MSSE 15-4): 0.5 µg/mL | Anti-bacterial activity (MIC), strain MSSE 15-5 ([6]; clinical isolate MSSE 15-5): 0.5 µg/mL | Anti-bacterial activity (MIC), strain MSSE 15-6 ([6]; clinical isolate MSSE 15-6): 0.125 µg/mL | Anti-bacterial activity (MIC) ([7]; strain EFM 15-1): 32 µg/mL | Anti-bacterial activity (MIC) ([7]; strain EFM 15-2): > 32 µg/mL | Anti-bacterial activity (MIC) ([7]; strain EFM 15-3): > 32 µg/mL | Anti-bacterial activity (MIC) ([7]; strain EFM 15-4): 2 µg/mL | Anti-bacterial activity (MIC) ([7]; strain EFM 15-5): 0.25 µg/mL | Anti-bacterial activity (MIC) ([7]; strain EFM 15-6): 0.25 µg/mL | Anti-bacterial activity (MIC), strain MRSA 15-1 ([8]; clinical isolate MRSA 15-1): 0.25 µg/mL | Anti-bacterial activity (MIC), strain MRSA 15-2 ([8]; clinical isolate MRSA 15-2): 0.5 µg/mL | Anti-bacterial activity (MIC), strain MRSA 15-3 ([8]; clinical isolate MRSA 15-3): 0.25 µg/mL | Anti-bacterial activity (MIC), strain MRSA 15-4 ([8]; clinical isolate MRSA 15-4): 0.5 µg/mL | Anti-bacterial activity (MIC), strain ECO+ 15-1 ([9]; clinical isolate ECO+ 15-1): 16 µg/mL | Anti-bacterial activity (MIC), strain ECO+ 15-2 ([9]; clinical isolate ECO+ 15-2): 16 µg/mL | Anti-bacterial activity (MIC), strain ECO+ 15-3 ([9]; clinical isolate ECO+ 15-3): 32 µg/mL | Anti-bacterial activity (MIC), strain ECO+ 15-4 ([9]; clinical isolate ECO+ 15-4): 32 µg/mL | Anti-bacterial activity (MIC), strain ECO− 15-1 ([9]; clinical isolate ECO− 15-1): 32 µg/mL | Anti-bacterial activity (MIC), strain ECO− 15-2 ([9]; clinical isolate ECO− 15-2): 32 µg/mL | Anti-bacterial activity (MIC), strain ECO− 15-3 ([9]; clinical isolate ECO− 15-3): 32 µg/mL | Anti-bacterial activity (MIC), strain ECO− 15-4 ([9]; clinical isolate ECO− 15-4): 32 µg/mL | Anti-bacterial activity (MIC), strain MRSE 15-1 ([10]; clinical isolate MRSE 15-1): 0.5 µg/mL | Anti-bacterial activity (MIC), strain MRSE 15-2 ([10]; clinical isolate MRSE 15-2): 0.5 µg/mL | Anti-bacterial activity (MIC), strain MRSE 15-3 ([10]; clinical isolate MRSE 15-3): 0.5 µg/mL | Anti-bacterial activity (MIC), strain MRSE 15-7 ([10]; clinical isolate MRSE 15-7): 0.5 µg/mL | Anti-bacterial activity (MIC), strain MSSA 15-3 ([11]; clinical isolate MSSA 15-3): 0.5 µg/mL | Anti-bacterial activity (MIC), strain MSSA 15-4 ([11]; clinical isolate MSSA 15-4): 0.125 µg/mL | Anti-bacterial activity (MIC), strain MSSA 15-5 ([11]; clinical isolate MSSA 15-5): 0.125 µg/mL | Anti-bacterial activity (MIC), strain MSSA 15-6 ([11]; clinical isolate MSSA 15-6): 32 µg/mL | Anti-bacterial activity (MIC) ([12]; strain SPN 16-2): 0.25 µg/mL | Anti-bacterial activity (MIC) ([12]; strain SPN 16-4): 0.25 µg/mL | inhibition at 30 µM ([13]; Table 5, read-out: Inhibition of proliferation, Colorectal cancer HCT116): ≥ 30% | inhibition at 30 µM ([13]; read-out: HCT116 inhibition rate/%): 44%
